Measurements as given in patent publication US20170050957A1, “4-AMINO-6-(HETEROCYCLIC)PICOLINATES AND 6-AMINO-2-(HETEROCYCLIC)PYRIMIDINE-4-CARBOXYLATES AND THEIR USE AS HERBICIDES” (Dow AgroSciences LLC, priority 2013, published 2017).
Read-outs that look alike come from different tables or passages of the source.

What was measured:
[1] = system: Key Broadleaf Weed and Crop Species; assay: Post-emergent Test II herbicidal activity (Table 15); type: in vivo; settings: post-emergence, 336 h, 14 d; for pest or weed control at 35 g/ha: 35 g ai/ha; for pest or weed control at 70 g/ha: 70 g ai/ha; for pest or weed control at 140 g/ha: 140 g ai/ha
In short: (§1)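 Greenhouse-grown seedlings at first/second true leaf receive a track spray at 187 L/ha, using a highest rate plus two-fold serial dilutions down to 1/16×. Watering is by subirrigation to avoid wash-off. Percent injury (0-100) is judged by eye at 14 d against untreated plants.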

[2] = system: Key Grass and Sedge Weeds as well as Grass Crops; assay: Post-emergent Test II herbicidal activity (Table 16); type: in vivo; settings: post-emergence, 336 h, 14 d; for pest or weed control at 35 g/ha: 35 g ai/ha; for pest or weed control at 70 g/ha: 70 g ai/ha; for pest or weed control at 140 g/ha: 140 g ai/ha
In short: as §1

[3] = Abutilon theophrasti, velvetleaf (Abutilon theophrasti), read-out: Visual Growth Reduction (%) 14 Days After Application, ABUTH
[4] = Amaranthus retroflexus, redroot pigweed (Amaranthus retroflexus), read-out: Visual Growth Reduction (%) 14 Days After Application, AMARE
[5] = Brassica napus, oilseed rape, canola (Brassica napus), read-out: Visual Growth Reduction (%) 14 Days After Application, BRSNN
[6] = Chenopodium album, lambsquarters (Chenopodium album), read-out: Visual Growth Reduction (%) 14 Days After Application, CHEAL
[7] = Euphorbia heterophylla, wild poinsettia (Euphorbia heterophylla), read-out: Visual Growth Reduction (%) 14 Days After Application, EPHHL
[8] = Helianthus annuus, sunflower (Helianthus annuus), read-out: Visual Growth Reduction (%) 14 Days After Application, HELAN
[9] = Cyperus esculentus, yellow nutsedge (Cyperus esculentus), read-out: Visual Growth Reduction (%) 14 Days After Application, CYPES
[10] = Echinochloa crus-galli, barnyardgrass (Echinochloa crus-galli), read-out: Visual Growth Reduction (%) 14 Days After Application, ECHCG
[11] = Oryza sativa, rice (Oryza sativa), read-out: Visual Growth Reduction (%) 14 Days After Application, ORYSA
[12] = Setaria faberi, giant foxtail (Setaria faberi), read-out: Visual Growth Reduction (%) 14 Days After Application, SETFA
[13] = Triticum aestivum, wheat, spring (Triticum aestivum), read-out: Visual Growth Reduction (%) 14 Days After Application, TRZAS
[14] = Zea mays, maize, corn (Zea mays), read-out: Visual Growth Reduction (%) 14 Days After Application, ZEAMX

Compound | melting point [°C] | pest or weed control at 35 g/ha [1, 3] [%] | pest or weed control at 70 g/ha [1, 3] [%] | pest or weed control at 140 g/ha [1, 3] [%] | pest or weed control at 35 g/ha [1, 4] [%] | pest or weed control at 70 g/ha [1, 4] [%] | pest or weed control at 140 g/ha [1, 4] [%] | pest or weed control at 35 g/ha [1, 5] [%] | pest or weed control at 70 g/ha [1, 5] [%] | pest or weed control at 140 g/ha [1, 5] [%] | pest or weed control at 35 g/ha [1, 6] [%] | pest or weed control at 70 g/ha [1, 6] [%] | pest or weed control at 140 g/ha [1, 6] [%] | pest or weed control at 35 g/ha [1, 7] [%] | pest or weed control at 70 g/ha [1, 7] [%] | pest or weed control at 140 g/ha [1, 7] [%] | pest or weed control at 35 g/ha [1, 8] [%] | pest or weed control at 70 g/ha [1, 8] [%] | pest or weed control at 140 g/ha [1, 8] [%] | pest or weed control at 35 g/ha [2, 9] [%] | also measured
COC(=O)c1nc(-c2cc3ccoc3cc2F)cc(N)c1Cl [Compound 2.04] | 98 | 75 to 84 | 85 to 94 | 95 to 100 | 95 to 100 | 95 to 100 | 95 to 100 | 0 to 29 | 0 to 29 | 30 to 44 | 95 to 100 | 95 to 100 | 95 to 100 | 95 to 100 | 95 to 100 | 95 to 100 | 0 to 29 | 0 to 29 | 30 to 44 | 0 to 29 | pest or weed control at 70 g/ha [2, 9]: 0 to 29%; pest or weed control at 140 g/ha [2, 9]: 30 to 44%; pest or weed control at 35 g/ha [2, 10]: 60 to 74%; pest or weed control at 70 g/ha [2, 10]: 95 to 100%; pest or weed control at 140 g/ha [2, 10]: 95 to 100%; pest or weed control at 35 g/ha [2, 11]: 0 to 29%; pest or weed control at 70 g/ha [2, 11]: 0 to 29%; pest or weed control at 140 g/ha [2, 11]: 0 to 29%; pest or weed control at 35 g/ha [2, 12]: 60 to 74%; pest or weed control at 70 g/ha [2, 12]: 75 to 84%; pest or weed control at 140 g/ha [2, 12]: 85 to 94%; pest or weed control at 35 g/ha [2, 13]: 0 to 29%; pest or weed control at 70 g/ha [2, 13]: 30 to 44%; pest or weed control at 140 g/ha [2, 13]: 45 to 59%; pest or weed control at 35 g/ha [2, 14]: 60 to 74%; pest or weed control at 70 g/ha [2, 14]: 75 to 84%; pest or weed control at 140 g/ha [2, 14]: 85 to 94%
Nc1c(F)c(-c2ccc3[nH]ccc3c2)nc(C(=O)O)c1Cl [Compound 1.04] | 180 to 182 | 45 to 59 | 0 to 29 | 0 to 29 | 60 to 74 | 60 to 74 | 60 to 74 | 30 to 44 | 45 to 59 | 45 to 59 | 45 to 59 | 60 to 74 | 60 to 74 | 95 to 100 | 95 to 100 | 95 to 100 | 45 to 59 | 45 to 59 | 85 to 94 | 0 to 29 | pest or weed control at 70 g/ha [2, 9]: 0 to 29%; pest or weed control at 140 g/ha [2, 9]: 0 to 29%; pest or weed control at 35 g/ha [2, 10]: 0 to 29%; pest or weed control at 140 g/ha [2, 10]: 85 to 94%; pest or weed control at 35 g/ha [2, 11]: 0 to 29%; pest or weed control at 70 g/ha [2, 11]: 0 to 29%; pest or weed control at 140 g/ha [2, 11]: 0 to 29%; pest or weed control at 35 g/ha [2, 12]: 0 to 29%; pest or weed control at 70 g/ha [2, 12]: 0 to 29%; pest or weed control at 140 g/ha [2, 12]: 0 to 29%; pest or weed control at 35 g/ha [2, 13]: 0 to 29%; pest or weed control at 70 g/ha [2, 13]: 0 to 29%; pest or weed control at 140 g/ha [2, 13]: 0 to 29%; pest or weed control at 35 g/ha [2, 14]: 0 to 29%; pest or weed control at 70 g/ha [2, 14]: 0 to 29%; pest or weed control at 140 g/ha [2, 14]: 0 to 29%
